Assay results published in patent US9550073B2, “Therapeutic agent for allergic rhinitis” (SBI Pharmaceuticals Co., Ltd., priority 2011, dated 2017).
Where a name gives a salt, the structure may show the parent alone.

Legend:
Format in all cases: in vivo, human
[1] = tested on: allergic rhinitis due to pollinosis; experiment: ALA-PDT with 635 nm red semiconductor laser after ALA hydrochloride in applied liquid form (transdermal, nasal cavity), subjects with pollinosis; conditions: 5% by weight in saline on cotton in the nasal cavity for 1 hour, 100 J of 635 nm laser for 6 minutes
Description: Then, it was examined whether or not, even when the ALA hydrochloride was administered in an applied liquid form, it could treat allergic rhinitis. A saline solution comprising 5% by weight of ALA hydrochloride sufficiently soaked in cotton was applied to the nasal cavity of 4 adult male subjects with pollinosis, and the soaked cotton was left in place for 1 hour before being removed. 100 J of red semiconductor laser light having a wavelength of 635 nm was intranasally irradiated for 6 minutes immediately after removing the soaked cotton on 3 of the subjects and 1 hour after removing the soaked cotton on the remaining 1 subject. As a result, symptoms of a severe runny nose and sneezing due to pollinosis of the 4 subjects disappeared for the 1 subject irradiated 1 hour thereafter and abated for the 3 subjects irradiated immediately thereafter. […] In addition, the treatment by the liquid form application is shown to be more excellent treatment than that by oral administration in view of cost effectiveness and time effectiveness because the direct application of an ALA hydrochloride solution around an inflamed site of the nasal mucosa can more decrease the amount of ALA hydrochloride administered than oral administration and PpIX accumulates in a short time in the inflamed site of the nasal mucosa.

[2] = tested on: allergic rhinitis; experiment: ALA-PDT with 635 nm red LED on the inflamed site after oral ALA hydrochloride, subjects with allergic rhinitis; conditions: 3 subjects; 20 mg/kg oral; 635 nm red LED until red fluorescence no longer visible
Description: (§1) To 3 subject volunteers with allergic rhinitis, 20 mg/kg of ALA hydrochloride was orally administered, and violet light of 408 nm was irradiated into the nasal cavity after about 6 hours using a bronchoscope enabling fluorescence observation (SAFE-3000 from Pentax) to perform ALA-PDD. […] The light of a red LED (light emitting diode) (FIG. 2) having a wavelength of 635 nm was irradiated on the inflamed site of the nasal mucosa until the red fluorescence could not be visually observed (FIG. 3). More specifically, the red LED light having a wavelength of 635 nm was irradiated for a certain period, followed by discontinuing the PDT irradiation; a bronchoscope (SAFE-3000 from Pentax) was inserted into the nasal cavity by interchanging with the irradiation device; and after observing red light, the PDT irradiation was again performed.

[3] = tested on: allergic rhinitis due to pollinosis; experiment: ALA-PDT with 635 nm red semiconductor laser into the entire nasal cavity after oral ALA hydrochloride, subjects with pollinosis; conditions: 20 mg/kg oral
Description: To a total 12 subjects with pollinosis, 7 adult males and 5 adult females, 20 mg/kg of ALA hydrochloride was orally administered, and 6 hours later, 100 J of red semiconductor laser light having a wavelength of 635 nm was irradiated into the nasal cavity for 6 minutes. As a result, symptoms of a severe runny nose and sneezing due to pollinosis of the 12 subjects disappeared ([…]) or abated (5 subjects), and these effects were maintained until at least 1 year after the irradiation.

[4] = tested on: inflamed site of the nasal mucosa; experiment: ALA-PDD: PpIX accumulation in the nasal mucosa after oral ALA hydrochloride; conditions: 3 subject volunteers with allergic rhinitis; 20 mg/kg oral; 408 nm violet light after about 6 hours
Description: as §1

[5] = of 12 subjects with pollinosis, 6 hours later 100 J of 635 nm laser for 6 minutes

symptoms of a severe runny nose and sneezing until several days after the irradiation [2]: observed in the 3 subjects
Compound: NCC(=O)CCC(=O)O [ALA hydrochloride, 5-aminolevulinic acid]
symptoms of a severe runny nose and sneezing, irradiated 1 hour after removing the soaked cotton ([1]; 1 subject): disappeared
symptoms of a severe runny nose and sneezing, irradiated immediately after removing the soaked cotton ([1]; 3 subjects): abated
course of symptoms of runny nose and sneezing thereafter [2]: abated over several weeks
time for which the effects were maintained after the irradiation ([3]; 12 subjects with pollinosis, 100 J of 635 nm laser for 6 minutes): at least 1 year
subjects whose symptoms of a severe runny nose and sneezing abated [3, 5]: 5 subjects
subjects whose symptoms of a severe runny nose and sneezing disappeared [3, 5]: 3 subjects
inflamed site of the nasal mucosa by which PpIX was taken up (ALA-PDD fluorescence) [4]: detected as red fluorescence
